Results on one compound are retold here after patent US20110245334A1, “USE OF RACEMATES OF PINOCEMBRIN IN PREPARING MEDICAMENTS FOR TREATING STROKE” (CSPC Zhonggi Pharmaceutical Technology (Shijiazhuang) Co. …, priority 2008, published 2011).

What all share (format): in vivo, rat
For test [1], the system named is MCAO rats. The test is described as follows: Cerebral infarct volume (TTC), MCAO. The conditions noted are these: 3 mg/kg. The method, then:
After neurobehavioral scoring, the rats were put to death by decollation and their brain tissues were removed quickly and put into a refrigerator of −20° C. 10 min later, the brain tissue was moved to an environment of room temperature. After the olfactory bulb, cerebellar and lower brain stem were resected, the brain tissue was cut into five continuous coronal slices with an interval of 2 mm and was cut first on the connection midpoint of brain anterior pole and optic decussation, second on optic decussation, third on funnel handle and fourth on midpoint of funnel handle and thick leaves caudate nucleus. Then the brain slices were quickly put into 5 ml solution containing 4% TTC and 0.1 ml mol·L^−1K2HPO4 and incubated at a constant temperature of 37° C. and in condition of darkness for 30 min. During the time period, the brain slices were tipped every 5 min. […] Every group of brain slices were put in order and photographed. The photographs were processed by an image analysis system and infarct area in every slice was calculated. The infarct volume of every slice was calculated by multiplying the infarct area by the thickness of slice (2 mm), and the infarct volume was the sum of infarct volumes of all slices.
Infarct volume(%)=(volume of surgery-contralateral hemisphere−infarct volume of surgery-homolateral hemisphere)/volume of surgery-contralateral hemisphere×100%

For test [2], the system named is MCAO rats. The test is described as follows: Regional cerebral blood flow (LDF), MCAO. The conditions noted are these: 3 mg/kg. An excerpt: The rats were fixed pronely on the stereotaxic apparatus and subjected to craniotomy. After cleaning for operation visual field, bregma was used as an origin, and a site situated 2 mm behind and 3 mm right to the bregma was selected as a measuring point. The region […] around the site was thinned by a dental drill. In the process, the integrity of dura was maintained and large vessels were avoided. Probe holder was located and fixed.
The rats were supinely fixed on the operating table to carry out MCAO surgery. When a nylon line was inserted in ICA, it was not inserted into intracranial part until LDF value was stable, and blood flow value in 10 min was recorded, and an average value thereof is used as a baseline value of cerebral blood flow. After the MCAO surgery completed, the nylon line was inserted into the intracranial part. When the blood flow value suddenly declined to 20-30% of the baseline value, it was noted that the blood flow in MCA had been blocked. The blood flow value before MCAO in every group was used as a baseline value (100%) of the group. […] LDF value was determined at the same site before the animals was put to death.

Another test concerns tMCAO rats. The test can be described thus: Infarct volume (TTC), tMCAO time window study. As to conditions: 2 hours ischemia and 24 hours reperfusion, 1 mg/kg, 3 h. The method, then:
1. In the test, transient middle cerebral artery occlusion (tMCAO) model of rats was adopted. The reperfusion was performed after focal cerebral ischemia for 2 hours so as to inspect therapeutic time window of pinocembrin after focal cerebral ischemia. The rats were administered by pinocembrin racemate (1 mg/kg, 5 mg/kg, intravenous injection) after reperfusion 1 hour, 4 hours and 6 hours (i.e., ischemia 3 hour, 6 hours and 8 hours). (R)-pinocembrin and (S)-pinocembrin (1 mg/kg, 5 mg/kg, intravenous injection) were administered after reperfusion 1 hour and 4 hours (i.e., ischemia 3 hour and 6 hours). The therapeutic time windows of these drugs in focal cerebral ischemia were assessed by studying their effects to neurological symptom scores, infarct sizes and brain water contents during 24 hours after tMCAO.
2.4 Experimental Grouping and Administration • Sham operation group (intravenous injection of normal saline after 3 hours of ischemia); • Model group (intravenous injection of 50 mg/kg hydroxypropyl β-cyclodextrin after 3 hours of ischemia); • Nimodipine group (1 mg/kg, administered after 3 hours of ischemia); • Pinocembrin racemate group (1 mg/kg, 5 mg/kg, administered after 3, 6 and 8 hours of ischemia); • (R)-pinocembrin group (1 mg/kg, 5 mg/kg, administered after 3 and 6 hours of ischemia); • (S)-pinocembrin group (1 mg/kg, 5 mg/kg, administered after 3 and 6 hours of ischemia).
First administration was performed by intravenous injection, and intraperitoneal injection was carried out once 12 hours later with a dose 1.5 times of that for intravenous injection.
After neurobehavioral scoring, the rats were put to death by decollation and their brain tissues were taken out quickly and put into a refrigerator of −20° C. 10 min later, the brain tissues were moved to an environment of room temperature. After the olfactory bulb, cerebellar and lower brain stem were resected, the brain tissue was cut into six continuous coronal slices with an interval of 2 mm. Then the brain slices were quickly put into 5 ml solution containing 2% TTC and incubated at a constant temperature of 37° C. and in a condition of darkness for 30 min. During the time, the brain slices were tipped every 5 min. […] Every group of brain slices were put in order and photographed. The photographs were processed by an image analysis system and the infarct areas in each slice were calculated. The infarct volume of each slice was calculated via multiplying the infarct area by thickness of slice (2 mm), and the infarct volume was the sum of infarct volumes of all slices. The infarct volume percentage was expressed as: sick-side infarct volume/total sick-side brain volume.

For the compound `COCCOC(=O)C1=C(C)NC(C)=C(C(=O)OC(C)C)C1c1cccc([N+](=O)[O-])c1` (stereo not shown) [Nimodipine, reference compound], the “Percentage of infarct volume (%)” value in the test on MCAO rats [1] came to 16.7 ± 1.3 %; in the test with MCAO rats [1] (listed as nimodipine), 16.7±1.3%. The “regional cerebral blood flow (rCBF)” value is 99.91 ± 7.27 % of baseline value in the test on MCAO rats [2] (time point 10 min); 32.98 ± 8.09 % of baseline value in the test with MCAO rats [2] (time point 20 min); 55.58 ± 6.09 % of baseline value in the test on MCAO rats [2] (time point 30 min); 55.58±6.09 % of baseline value in the test with MCAO rats [2] (time point 30 min, listed as nimodipine); 67.96 ± 7.81 % of baseline value in the test on MCAO rats [2] (time point 40 min); 66.59 ± 9.08 % of baseline value in the test with MCAO rats [2] (time point 50 min). The “regional cerebral blood flow (rCBF)” value with MCAO rats [2] (time point 60 min) was 64.09 ± 8.03 % of baseline value; in the test on MCAO rats [2] (time point 70 min), 65.72 ± 8.58 % of baseline value; with MCAO rats [2] (time point 80 min), 64.98 ± 6.25 % of baseline value; in the test with MCAO rats [2] (time point 90 min) it was 63.99 ± 6.09 % of baseline value; in the test on MCAO rats [2] (time point 100 min) it was 67.01 ± 5.67 % of baseline value; with MCAO rats [2] (time point 110 min), 63.07 ± 6.1 % of baseline value. In addition, the “regional cerebral blood flow (rCBF)” value is reported as 61.85 ± 7.14 % of baseline value with MCAO rats [2] (time point 120 min); 67.12 ± 8.09 % of baseline value in the test on MCAO rats [2] (time point 130 min); 65.89 ± 6.81 % of baseline value with MCAO rats [2] (time point 140 min); 61.8 ± 8.08 % of baseline value in the test on MCAO rats [2] (time point 150 min); 63.47 ± 9.03 % of baseline value in the test on MCAO rats [2] (time point 160 min); 65.9 ± 7.58 % of baseline value with MCAO rats [2] (time point 170 min). Besides, in the test on MCAO rats [2] (time point 180 min), the “regional cerebral blood flow (rCBF)” value is recorded as 66.08 ± 6.89 % of baseline value. In addition, the “Infarct percentage (%)” value with tMCAO rats is 31.30 ± 10.31%.
